Results on eleven molecules are retold here after patent publication US20250110116A1, “COMPOSITIONS AND METHODS FOR PRODUCING HAIR FOLLICLE STEM CELLS” (The Rockefeller University, priority 2023, published 2025).

Entries after “also recorded” stand apart in the source; their conditions may differ. Where two headings read alike, the source gives them in different places.

The test system of test [1] is HFSCs. Briefly: Wound repair with lineage-traced HFSCs, topical treatment. Format: in vivo, mice. The conditions noted are these: topical. An excerpt:
The recruitment of HFSCs to epidermal repair is a multistep process, involving first the entry of HFSCs into a lineage plasticity state, second the fate switch to an epidermal fate and then later, the rebalancing of stem cell numbers across tissue compartments. Given the need for atRA to drive hair lineage determination, we analyzed whether elevating atRA after injury might diminish the ability of HFSCs to enter a state of lineage plasticity after wounding. To test this, we administered topical atRA immediately after wounding to telogen-phase, lineage marked HFSCs. While entry into the hair cycle proceeded normally after injury, topical atRA led to a stem cell imbalance (FIG. 5 Panel D).
To assess the consequences of promoting lineage plasticity following injury, we placed mice on a vitamin A-deficient diet that depleted the skin of retinol without affecting body mass (FIG. 15 Panel E). In this case, following tissue injury, mobilized HFSCs entered a prolonged stated of dual lineage potential well into the later stages of repair (FIG. 5 Panel D). […] By day 30, vitamin A deficiency also elevated the fraction of stem cells that contributed to the repaired epidermis and diminished the number remaining in the bulge.

For test [2], the system named is cultured HFSCs. The test can be described thus: Directed differentiation of cultured HFSCs to HS and IRS lineages (Cux1 reporters, GATA3, HOXC13). Format: cell-based, mouse. The conditions noted are these: for hair shaft (HS) differentiation (HOXC13, HS reporter): WNT-BMP co-activated HFSCs.
The subject of test [3] is HFSCs. Briefly: HFSC growth, survival and colony formation in 3D Matrigel culture. The test is classed as cell-based, mouse. Particulars: for concentration at which maximal rates of cell proliferation were reached: 3D Matrigel culture, standard HFSC media.
The subject of a further test is human keratinocytes. The test can be described thus: Human keratinocyte culture under the described conditions, 7 days. Format: cell-based. Particulars: atRA plus PKCi added to B-27 media. An excerpt: This example relates to FIG. 21. With respect to FIG. 21, to assess the translatability of the described methodology enabling the faithful recapitulation of hair follicle stem cell (HFSC) identity in culture to humans, we introduced the described conditions developed in the mouse to human keratinocytes.

Test [4] has as its system cultured HFSCs. Briefly: HFSC quiescence / bulge identity in culture (Nfatc1, Cxcl14 reporter). Format: cell-based, mouse. From the text:
In vivo, HFSCs can be divided into two populations: those in a more quiescent state found in the bulge and ones primed for activation, located in the ‘hair germ’ (HG) just below the bulge. As BMP6 is produced by the inner bulge and responsible for maintaining HFSCs in their quiescent state (FIG. 2 Panel A), we continued to utilize a described culture system by assessing how these factors impact HFSC activation and fate commitment.
BMPs triggered cell cycle exit (FIG. 9 Panel A).
(§1) ERKi was also excluded because of its known ability to regulate the initiation of hair growth. Both atRA (10 nM-1 μM) and PKCi (0.1-10 μM) were titrated to determine the optimal concentration to reduce lineage plasticity and promote physiological HFSC behavior. […] In contrast, BMP6-mediated Nfatc1 mRNA upregulation (quiescence marker) was maximal at 10 nM. Therefore, the amount of atRA should be modified in HFSC cultures to support the desired cell fate in combination with these and possibly other growth factors.

In test [5] the test system is cultured HFSCs. Briefly: Marker expression in cultured HFSCs (immunofluorescence, immunoblot, qPCR). The test is classed as cell-based, mouse. An excerpt:
We first explored these two hits against the backdrop of our more physiological (serum-free) conditions, where SOX9 and KLF5 had already partitioned their expression peripherally and internally within colonies, respectively (FIG. 1 Panel C).
Immunoblot, qPCR and additional immunofluorescence analyses strengthened the evidence that PKCi and atRA resolve lineage plasticity (FIG. 1 Panel D, FIG. S2, Panels C to E).

The test system of another test is Klf5-EGFP. The test can be described thus: Klf5-EGFP lineage plasticity reporter in 3D cultured HFSCs (flow cytometry). The test is classed as cell-based, mouse. The conditions noted are these: for Klf5-EGFP levels: media modification.
Test [6] concerns cultured HFSCs. The test can be described thus: Rspo/WNT-mediated HFSC activation in culture (TCF/LEF, Lgr5, EdU). The test is classed as cell-based, mouse.
From the text: In vitro, none of the four WNT-regulating TCF/LEF transcription factors were expressed under standard serum conditions or in serum-free conditions, even with PKCi. […] These HFSC-associated TFs were also stimulated by BMP6, consistent with a raised threshold for activating WNT during quiescence (FIG. 10, Panels A and B). […] Rspo-mediated HFSC proliferation was sensitive to atRA with the greatest cooperative effect seen at 10-fold higher the atRA concentration that had been optimal for quiescence-related features of stemness (FIG. 2 Panel E, FIG. 10 Panel D).
as §1

In test [7] the test system is HFSCs. The test can be described thus: Transplantation of precultured HFSCs with dermal fibroblasts onto mouse back skins. Format: in vivo. The conditions noted are these: HFSCs precultured in serum-free media primed with either atRA, BMP6 or Rspo. An excerpt: By overcoming the hurdles to lineage progression in vitro, we challenged the in vivo regenerative potential of the described lineage-specified cell populations. YFP-labeled progenitors from each group were combined with allogenic dermal fibroblasts and transplanted onto mouse back skins.

As to `Cc1ccc(C2=CCC(C)(C)c3ccc(C#Cc4ccc(C(=O)O)cc4)cc32)cc1` [AGN193109], in the test on HFSCs [1], the “HF downgrowth and epidermal flux following wounding” value was “reducing HF downgrowth and promoting epidermal upward flux”. In addition, the “hair shaft (HS) differentiation (HOXC13, HS reporter)” value in the test with cultured HFSCs [2] is “uniquely promoted”; in the test with cultured HFSCs [2] (listed as RARi), “primarily increased HOXC13 expression and enhancer epicenter reporter activity for the HS lineage”.

Consider `[Ca+2].[Cl-].[Cl-]` [CaCl2, Calcium Chloride], for which the “effect on cell survival, colony formation or proliferation” value (from here on “effect on cell survival”) in the test on HFSCs [3] is listed as “Less CaCl2 reduced cell proliferation while higher amounts promoted epidermal differentiation”.

With `CC(C)CCC[C@@H](C)[C@H]1CC[C@H]2[C@@H]3CC=C4C[C@@H](O)CC[C@]4(C)[C@H]3CC[C@]12C` [Cholesterol], in the test with HFSCs [3] (serum-free media), the HFSC colony growth entry is recorded as “increase colony growth without compromising reductions in lineage plasticity”.

With `C[C@]12CCC(=O)C=C1CC[C@@H]1[C@@H]2[C@@H](O)C[C@@]2(C)[C@H]1CC[C@]2(O)C(=O)CO` [Hydrocortisone, hydrocortisone], the “effect on cell survival” value with HFSCs [3] (media component testing) is given as “not necessary for colony formation or cell proliferation”.

Regarding `Cn1c2ccccc2c2c3c(c4c5ccccc5n(CCC#N)c4c21)CNC3=O` [PKCi, Go-6976], in the test with human keratinocytes, the KLF5 expression entry is “further suppressed KLF5 expression in both basal and suprabasal layers”; the SOX9 levels entry is on record as “upregulated SOX9 levels”. Besides, the “keratin profile (KRT10, KRT6, KRT15)” value in the test on human keratinocytes (listed as G66976) was “reductions in KRT10 and KRT6; also recorded: upregulation of KRT15”. The Cxcl14 activity result in the test on cultured HFSCs [4] is “little or no effect on Cxcl14 activity”. The “KRT6 and Ets2 expression” value in the test on cultured HFSCs [5] is recorded as “suppressed”. In addition, in the test with cultured HFSCs [5] (combination of atRA and PKCi, 3D culture), the “resolution of lineage plasticity and HFSC behavior” value was “optimally resolved lineage plasticity and favored HFSC behavior”. The KLF5 expression result in the test on cultured HFSCs [5] (serum-free conditions) is given as “suppressed KLF5 expression”. The “reduction of Klf5-EGFP levels” value in the test on Klf5-EGFP (atRA and PKCi tested in combination) is listed as “most effective at reducing Klf5-EGFP levels”. In addition, the “effect on lineage plasticity (Klf5-EGFP levels)” value with Klf5-EGFP (screen of small molecule library, serum-free 3D culture) is “effective at reducing lineage plasticity without affecting proliferation; also recorded: particularly effective agents impacting lineage plasticity”. In addition, in the test with Klf5-EGFP (titrated 0.1-10 μM), the “minimum concentration required to achieve maximal effect on lineage plasticity and HFSC fate” value came to 1 µM.

As for `C[C@@H](N)[C@H]1CC[C@H](C(=O)Nc2ccncc2)CC1` [Y-27632], the “effect on cell survival” value in the test with HFSCs [3] (media component testing) was “increase cell survival and CFE”.

With `N[C@@H](CCC(=O)N[C@@H](CS)C(=O)NCC(=O)O)C(=O)O` [glutathione], in the test with Klf5-EGFP, the Klf5-EGFP levels result was “greatest impact when removed”.

For EGF: epidermal growth factor, mitogen, the “concentration at which maximal rates of cell proliferation were reached” value with HFSCs [3] was 25 ng/mL.

B1: BMP6: bone morphogenetic protein; promotes HFSC quiescence (protein, UniProt P22004 375-513, looked up)
Bone morphogenetic protein 6: SASSRRRQQSRNRSTQSQDVARVSSASDYNSSELKTACRKHELYVSFQDLGWQDWIIAPKGYAANYCDGECSFPLNAHMNATNHAIVQTLVHLMNPEYVPKPCCAPTKLNAISVLYFDDNSNVILKKYRNMVVRACGCH
Take B1: in the test on cultured HFSCs [4] (BMP6 with low concentration of atRA (10 nM)), the cell state entry was “resulted in cell cycle exit and maintained a state resembling quiescence”. Further, in the test on cultured HFSCs [4] (compared among BMPs), the “cell cycle exit / quiescence (Nfatc1 expression, Cxcl14 promoter reporter)” value is on record as “most potent effect”. In addition, the “Tcf7l1 (TCF3) and Tcf7l2 (TCF4) expression” value in the test on cultured HFSCs [6] was “stimulated”. Moreover, the “hair production upon engraftment” value with HFSCs [7] is reported as “efficiently produced hair”.

B2: FGF10: fibroblast growth factor 10, native HFSC niche mitogen (protein, UniProt O15520 38-208, looked up)
Fibroblast growth factor 10: QALGQDMVSPEATNSSSSSFSSPSSAGRHVRSYNHLQGDVRWRKLFSFTKYFLKIEKNGKVSGTKKENCPYSILEITSVEIGVVAVKAINSNYYLAMNKKGKLYGSKEFNNDCKLKERIEENGYNTYASFNWQHNGRQMYVALNGKGAPRRGQKTRRKNTSAHFLPMVVHS
Regarding B2, the “concentration at which maximal rates of cell proliferation were reached” value with HFSCs [3] is 10 ng/mL. The Klf5-EGFP levels entry in the test with Klf5-EGFP was “consistently lower”.

B3: BMP4: bone morphogenetic protein (protein, UniProt P12644 293-408, looked up)
Bone morphogenetic protein 4: SPKHHSQRARKKNKNCRRHSLYVDFSDVGWNDWIVAPPGYQAFYCHGDCPFPLADHLNSTNHAIVQTLVNSVNSSIPKACCVPTELSAISMLYLDEYDKVVLKNYQEMVVEGCGCR
On to B3, for which, in the test with cultured HFSCs [2] (R-spondins, BMP2 and BMP4 together), the lineages formed entry is “directed HFSCs to form the hair shaft and inner root sheath lineages”. Also, the “Cux1 (IRS) and Cux1 (HS) reporter activity” value with cultured HFSCs [2] (alongside Rspo) is on record as “most effective in upregulating reporter activity”.
